pIC50: −log10 of the molar value. Read-outs that look alike come from different tables or passages of the source.
Biological target: NanoLuc (Oplophorus gracilirostris, UniProt Q9GV45, A31E/A60N/A81I/F95D/I117V/K70R/L54V/L99Q/M102K/N193R/P142E/Q151K/Q38R/Q45L/V71I/Y165I)
Test: Inhibitor IC50 determination
Format: biochemical
Description: The following example provides the IC50 values for the compounds disclosed herein. NANOLUC® enzyme was diluted to 0.4 ng/ml in CO2 independent media+10% FBS to make the detection reagent. A 3× dilution series of each inhibitor was then made in the detection reagent. A “no inhibitor” control was also made for each sample. 50 ul of each inhibitor dilution was mixed with 50 ul of NanoGlo® buffer containing 20 μM furimazine (final furimazine concentration is 10 μM, which is at Km.), and luminescence was measured. Each sample was normalized to the “no inhibitor” control. The IC50 values were then determined using GraphPad Prism (log[inhibitor] vs. normalized response).

[1] = 0.4 ng/ml NANOLUC in CO2 independent media+10% FBS, final furimazine 10 μM, no pre-incubation noted, read-out: IC50

NanoLuc, sequence (Q9GV45 28-196 with tags or gaps with the stated changes limits assumed): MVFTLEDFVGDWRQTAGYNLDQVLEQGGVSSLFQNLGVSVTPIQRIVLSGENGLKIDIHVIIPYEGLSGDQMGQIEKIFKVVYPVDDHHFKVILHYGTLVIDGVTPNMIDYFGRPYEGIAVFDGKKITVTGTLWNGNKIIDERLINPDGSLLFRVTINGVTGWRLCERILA

Compound | pIC50 | pIC50 [1]
CCN(C(=O)Cn1c(C(=O)N[C@H]2CC[C@H](C(=O)NCCCCCCNC(=O)c3ccc4c(c3)C(=O)OC43c4ccc(O)cc4Oc4cc(O)ccc43)CC2)cc2sccc21)c1cccc(C)c1 [JRW-0200, N-(trans-4-((6-(3′,6′-dihydroxy-3-oxo-3H-spiro[isobenzofuran-1,9′-xanthene]-5-carboxamido)hexyl)carbamoyl)cyclohexyl)-4-(2-(ethyl(m-tolyl)amino)-2-oxoethyl)-4H-thieno[3,2-b]pyrrole-5-carboxamide] | 7.31 | –
CCN(C(=O)Cn1c(C(=O)N[C@H]2CC[C@H](C(=O)OC)CC2)cc2sccc21)c1cccc(CBr)c1 [JRW-0466, methyl trans-4-(4-(2-((3-(bromomethyl)phenyl)(ethyl)amino)-2-oxoethyl)-4H-thieno[3,2-b]pyrrole-5-carboxamido)cyclohexane-1-carboxylate] | 8.68 | –
CCN(C(=O)Cn1c(C(=O)N[C@H]2CC[C@H](C(=O)NCCCCCC(=O)NCCOCCOCCC(=O)ON3C(=O)CCC3=O)CC2)cc2sccc21)c1cccc(C)c1 [JRW-0520, 2,5-dioxopyrrolidin-1-yl 1-(trans-4-(4-(2-(ethyl(m-tolyl)amino)-2-oxoethyl)-4H-thieno[3,2-b]pyrrole-5-carboxamido)cyclohexyl)-1,8-dioxo-12,15-dioxa-2,9-diazaoctadecan-18-oate] | 7.03 | –
CCN(C(=O)Cn1c(C(=O)N[C@H]2CC[C@H](C(=O)NCCCCCC(=O)NCCOCCOCCOCCC(=O)ON3C(=O)CCC3=O)CC2)cc2sccc21)c1cccc(C)c1 [JRW-0525] | 7.08 | –
CCN(C(=O)Cn1c(C(=O)N[C@H]2CC[C@H](C(=O)NCCCCCC(=O)NCCOCCOCCOCCOCCC(=O)ON3C(=O)CCC3=O)CC2)cc2sccc21)c1cccc(C)c1 [JRW-0533] | 7.04 | –
CCN(C(=O)Cn1c(C(=O)N[C@H]2CC[C@H](C(=O)NCCCCCCNC(=O)CCOCCOCCNC(=O)CCN3C(=O)C=CC3=O)CC2)cc2sccc21)c1cccc(C)c1 [JRW-0559] | 7.48 | –
CCc1cccc(N(CC)C(=O)Cn2c(C(=O)N[C@H]3CC[C@H](C(=O)NCCCCCCCC(=O)OC)CC3)cc3ccccc32)c1 [JRW-0597, methyl 8-(trans-4-(1-(2-(ethyl(3-ethylphenyl)amino)-2-oxoethyl)-1H-indole-2-carboxamido)cyclohexane-1-carboxamido)octanoate] | 9.80 | –
CCc1cccc(N(CC)C(=O)Cn2c(C(=O)N[C@H]3CC[C@H](C(=O)NCCCCCCCC(=O)Oc4ccccc4)CC3)cc3ccccc32)c1 [JRW-0605, phenyl 8-(trans-4-(1-(2-(ethyl(3-ethylphenyl)amino)-2-oxoethyl)-1H-indole-2-carboxamido)cyclohexane-1-carboxamido)octanoate] | 9.92 | –
CCc1cccc(N(CC)C(=O)Cn2c(C(=O)N[C@H]3CC[C@H](C(=O)NCCCCCCI)CC3)cc3ccccc32)c1 [JRW-0622, 1-(2-(ethyl(3-ethylphenyl)amino)-2-oxoethyl)-N-(trans-4-((6-iodohexyl)carbamoyl)cyclohexyl)-1H-indole-2-carboxamide] | 9.85 | –
CCc1cccc(N(CC)C(=O)Cn2c(C(=O)N[C@H]3CC[C@H](C(=O)NCCCCCCBr)CC3)cc3ccccc32)c1 [JRW-0626, N-(trans-4-((6-bromohexyl)carbamoyl)cyclohexyl)-1-(2-(ethyl(3-ethylphenyl)amino)-2-oxoethyl)-1H-indole-2-carboxamide] | 9.70 | –
CCc1cccc(N(CC)C(=O)Cn2c(C(=O)N[C@H]3CC[C@H](C(=O)NCCCCCCNC(=O)c4ccc5c(c4)C(=O)OC54c5ccc(O)cc5Oc5cc(O)ccc54)CC3)cc3ccccc32)c1 [JRW-0818, N-(trans-4-((6-(3′,6′-dihydroxy-3-oxo-3H-spiro[isobenzofuran-1,9′-xanthene]-5-carboxamido)hexyl)carbamoyl)cyclohexyl)-1-(2-(ethyl(3-ethylphenyl)amino)-2-oxoethyl)-1H-indole-2-carboxamide] | 8.92 | –
CCc1cccc(N(CC)C(=O)Cn2c(C(=O)N[C@H]3CC[C@H](C(=O)NCCCCCCNC(=O)c4ccc5c(c4)C4(OC5=O)c5ccc(N(C)C)cc5Oc5cc(N(C)C)ccc54)CC3)cc3ccccc32)c1 [JRW-822, N-(trans-4-((6-(3′,6′-bis(dimethylamino)-3-oxo-3H-spiro[isobenzofuran-1,9′-xanthene]-6-carboxamido)hexyl)carbamoyl)cyclohexyl)-1-(2-(ethyl(3-ethylphenyl)amino)-2-oxoethyl)-1H-indole-2-carboxamide] | 8.48 | –
CCN(C(=O)Cn1c(C(=O)N[C@H]2CC[C@H](C(=O)NCCCCCCNC(=O)c3ccc4c(c3)C3(OC4=O)c4ccc(N(C)C)cc4Oc4cc(N(C)C)ccc43)CC2)cc2sccc21)c1cccc(C)c1 [JRW-0824] | 6.74 | –
CCc1cccc(N(CC)C(=O)Cn2c(C(=O)N[C@H]3CC[C@H](C(=O)NCCCCCCNC(=O)CCc4ccc5n4[B-](F)(F)[N+]4=C(C)C=C(C)C4=C5)CC3)cc3ccccc32)c1 [JRW-0827, N-(trans-4-((6-(3-(5,5-difluoro-7,9-dimethyl-5H-514,614-dipyrrolo[1,2-c:2′,1′-f][1,3,2]diazaborinin-3-yl)propanamido)hexyl)carbamoyl)cyclohexyl)-1-(2-(ethyl(3-ethylphenyl)amino)-2-oxoethyl)-1H-indole-2-carboxamide] | 8.57 | –
CCN(C(=O)Cn1c(C(=O)N[C@H]2CC[C@H](C(=O)NCCCCCCNC(=O)CCc3ccc4n3[B-](F)(F)[N+]3=C(C)C=C(C)C3=C4)CC2)cc2sccc21)c1cccc(C)c1 [JRW-0829, N-(trans-4-((6-(3-(5,5-difluoro-7,9-dimethyl-5H-514,614-dipyrrolo[1,2-c:2′,1′-f][1,3,2]diazaborinin-3-yl)propanamido)hexyl)carbamoyl)cyclohexyl)-4-(2-(ethyl(m-tolyl)amino)-2-oxoethyl)-4H-thieno[3,2-b]pyrrole-5-carboxamide] | 6.32 | –
CCN(C(=O)Cn1c(C(=O)N[C@H]2CC[C@H](C(=O)NCCCCCCCC(=O)ON3C(=O)CC(S(=O)(=O)O)C3=O)CC2)cc2sccc21)c1cccc(C)c1 (stereo partly drawn) [JRW-0830, sodium 1-((8-(trans-4-(4-(2-(ethyl(m-tolyl)amino)-2-oxoethyl)-4H-thieno[3,2-b]pyrrole-5-carboxamido)cyclohexane-1-carboxamido)octanoyl)oxy)-2,5-dioxopyrrolidine-3-sulfonate] | 8.38 | –
CCN(C(=O)Cn1c(C(=O)N[C@H]2CC[C@H](C(=O)NCCCCCCCC(=O)Oc3ccc(F)cc3)CC2)cc2sccc21)c1cccc(C)c1 [JRW-0831] | 6.49 | –
CCN(C(=O)Cn1c(C(=O)N[C@H]2CC[C@H](C(=O)NCCCCCCCC(=O)Oc3cc(F)cc(F)c3)CC2)cc2sccc21)c1cccc(C)c1 [JRW-0833, 3,5-difluorophenyl 8-(trans-4-(4-(2-(ethyl(m-tolyl)amino)-2-oxoethyl)-4H-thieno[3,2-b]pyrrole-5-carboxamido)cyclohexane-1-carboxamido)octanoate] | 7.70 | –
CCN(C(=O)Cn1c(C(=O)N[C@H]2CC[C@H](C(=O)NCCCCCCCC(=O)Oc3ccc(C#N)cc3)CC2)cc2sccc21)c1cccc(C)c1 [JRW-0834, 4-cyanophenyl 8-(trans-4-(4-(2-(ethyl(m-tolyl)amino)-2-oxoethyl)-4H-thieno[3,2-b]pyrrole-5-carboxamido)cyclohexane-1-carboxamido)octanoate] | 8.48 | –
CCN(C(=O)Cn1c(C(=O)N[C@H]2CC[C@H](C(=O)NCCCCCNC(=O)CCl)CC2)cc2sccc21)c1cccc(C)c1 [JRW-0844, N-(trans-4-((5-(2-chloroacetamido)pentyl)carbamoyl)cyclohexyl)-4-(2-(ethyl(m-tolyl)amino)-2-oxoethyl)-4H-thieno[3,2-b]pyrrole-5-carboxamide] | 7.39 | –
CCN(C(=O)Cn1c(C(=O)N[C@H]2CC[C@H](C(=O)NCCCCCCNC(=O)CCl)CC2)cc2sccc21)c1cccc(C)c1 [JRW-0846, N-(trans-4-((6-(2-chloroacetamido)hexyl)carbamoyl)cyclohexyl)-4-(2-(ethyl(m-tolyl)amino)-2-oxoethyl)-4H-thieno[3,2-b]pyrrole-5-carboxamide] | 7.80 | –
CCN(C(=O)Cn1c(C(=O)N[C@H]2CC[C@H](C(=O)NCCCCCCCC(=O)Oc3c(F)c(F)cc(F)c3F)CC2)cc2sccc21)c1cccc(C)c1 [JRW-0847] | 9.52 | –
CCN(C(=O)Cn1c(C(=O)N[C@H]2CC[C@H](C(=O)NCCCCCCNC(=O)c3ccc4c(c3)C3(OC4=O)c4ccc(N)cc4Oc4cc(N)ccc43)CC2)cc2sccc21)c1cccc(C)c1 [JRW-0863] | – | 7.44
CCN(C(=O)Cn1c(C(=O)N[C@H]2CC[C@H](C(=O)NCCCCCNC(=O)CBr)CC2)cc2sccc21)c1cccc(C)c1 [JRW-0870, N-(trans-4-((5-(2-bromoacetamido)pentyl)carbamoyl)cyclohexyl)-4-(2-(ethyl(m-tolyl)amino)-2-oxoethyl)-4H-thieno[3,2-b]pyrrole-5-carboxamide] | 7.38 | –
CCc1cccc(N(CC)C(=O)Cn2c(C(=O)N[C@H]3CC[C@H](C(=O)NCCCCCCCCNC(=O)c4ccc5c(c4)C(=O)OC54c5ccc(O)cc5Oc5cc(O)ccc54)CC3)cc3ccccc32)c1 [JRW-0882, N-(trans-4-((8-(3′,6′-dihydroxy-3-oxo-3H-spiro[isobenzofuran-1,9′-xanthene]-5-carboxamido)octyl)carbamoyl)cyclohexyl)-1-(2-(ethyl(3-ethylphenyl)amino)-2-oxoethyl)-1H-indole-2-carboxamide] | 8.96 | –
CCN(C(=O)Cn1c(C(=O)N[C@H]2CC[C@H](C(=O)NCCCCCCCCNC(=O)c3ccc4c(c3)C(=O)OC43c4ccc(O)cc4Oc4cc(O)ccc43)CC2)cc2sccc21)c1cccc(C)c1 [JRW-0883] | 8.27 | –
CCN(C(=O)Cn1c(C(=O)N[C@H]2CC[C@H](C(=O)NCCCCCCCCNC(=O)c3ccc4c(c3)C(=O)OC43c4ccc(N)cc4Oc4cc(N)ccc43)CC2)cc2sccc21)c1cccc(C)c1 [JRW-0887] | – | 8.20

— patent US10815247B2, “Functionalized NANOLUC inhibitors” (PROMEGA CORPORATION, priority 2016, dated 2020)
